Assay type in all cases: cell-based
In assay [1] the test system is HEC1B endometrial cancer cells. As to the kind of experiment: Percent inhibition of cell growth, ZN-c3, LB-100 or ZN-c3+LB-100 after siCTRL or siPPP2R1A (cell titer glow). The settings on record: HEC1B, 72 hours, ZN-c3 200 nM, LB-100 1 μM. How it is done:
FIG. 21 depicts the percent inhibition of cell growth in HEC1B endometrial cancer cells after treatment with ZN-c3 alone, the PP2A catalytic inhibitor LB-100 alone, or the combination of ZN-c3+LB-100 after siRNA mediated knockdown of PPP2R1A. […] Percent inhibition is calculated using cell titer glow analysis.
Following observations that both knockdown and knockout of PPP2R1A could sensitize cancer cells to Zn-C3, the effects of pharmacological inhibition of PPP2R1A with the catalytic inhibitor LB-100 were evaluated. Various cancer cell lines were treated with ZN-c3 alone, the PP2A catalytic inhibitor LB-100 alone, or the combination of ZN-c3+LB-100. As in Example 1 and Example 2, the treatment period was 72 hours and percent inhibition was calculated using cell titer glow analysis.
The endometrial cancer cell line HEC1B was also assessed for sensitivity to ZN-c3 alone, LB-100 alone, or the combination of ZN-c3+LB-100 following treatment with siCTRL or siPPP2R1A (FIG. 21).

Another assay relates to HEC1B cells. The assay can be described thus: ZN-c3 dose response, percent cell density (cell titer glow), PPP2R1A siRNA vs scrambled control. The settings on record: Homo sapiens, HEC-1B, 72 h, HEC1B cells (PPP2R1A W257L; L429F). Here is the method: FIG. 11 depicts the percent cell density of HEC1B and HEC-59 (endometrial cancer cell lines) cells after treatment with a 10-point dose response of ZN-c3 for 72 hours, comparing cells transfected with siRNA to PPP2R1A against those transfected with a scrambled control siRNA. […] HEC-59 is PPP2R1A wild-type. Percent cell density is calculated using cell titer glow analysis. HEC1B PPP2R1A siRNA transfected cells have approximately 1.4-fold increase in sensitivity to ZN-c3 while HEC-59 PPP2R1A siRNA transfected cells have approximately 2.5 fold increase in sensitivity to ZN-c3 (TABLE 6).
The effect of PPP2R1A knockdown on influencing cancer cell susceptibility to ZN-c3 was evaluated. Various cancer cell lines were transfected with PPP2R1A siRNA or control scrambled siRNA and the cells were treated with a 10 point dose response of ZN-c3 for 72 hours. Percent cell density was calculated using cell titer glow analysis. The PPP2R1A siRNA targeted the following bases Chr.19: 52189802-52226425. SiRNA transfection was started 48 hours prior to treatment with ZN-c3. The ZN-c3 dose response evaluation included ZN-c3 dosages at […].
Endometrial cancer cell lines HEC1B and HEC-59 were treated with PPP2R1A siRNA or control siRNA and transfected cells were assessed for sensitivity to ZN-c3 by measurement of reduction in percent cell density (FIG. 11). PPP2R1A siRNA mediated knockdown of PPP2R1A was evaluated by comparison of PPP2R1A protein expression via western blot in conditions treated with siCTRL and siPPPR12A with vinculin used as a control (FIG. 12). Knockdown of PPP2R1A by siRNA was limited in HEC1B cells, due to the missense mutations W257L and L429F within PPP2R1A in this cell line.

Assay [2] deals with OV17R ovarian cancer cells. As to the kind of experiment: ZN-c3 dose response, percent cell density (cell titer glow). How it is done: FIG. 17 depicts the percent cell density of OV17R ovarian cancer cells after treatment with a 10-point dose response of ZN-c3 for 72 hours. OV17R has the S256F hotspot missense mutation in PPP2R1A. […] Percent cell density is calculated using cell titer glow analysis.
Having observed that siRNA mediated knockdown of PPP2R1A sensitized cancer cell lines to treatment with ZN-c3, it was also of interest to evaluate if CRISPR mediated PPP2R1A knockout produced a similar effect. Various cancer cell lines were transfected with a CRISPR guide RNA targeting PPP2R1A or nontargeting guide RNA and the cells were treated with a 10-point dose response of ZN-c3 for 72 hours. The 10-point dose response to ZN-c3 included the same dosages used in Example 1. As in Example 1, no media change was performed during the 72-hour ZN-c3 dose response evaluation period. Fewer than 20 cell passages were completed between the CRISPR mediated knockout and ZN-c3 treatment. CRISPR was performed by targeting PPP2R1A with a PPP2R1A sgRNA sequence. Percent cell density was calculated using cell titer glow analysis.
The ovarian cancer cell line OV17R was assessed for sensitivity to ZN-c3 by measurement of reduction in percent cell density (FIG. 17).
(In general: In ATP-based viability assays light output follows the ATP content of the culture.)

Assay [3] deals with SKOV3 ovarian cancer cells. As to the kind of experiment: ZN-c3 dose response, percent cell density (cell titer glow), CRISPR knockout of PPP2R1A vs non-targeting guide RNA. Conditions: Homo sapiens, SK-OV-3, 72 h. Here is the method:
FIG. 13 depicts the percent cell density of SKOV3 ovarian cancer cells after treatment with a 10-point dose response of ZN-c3 for 72 hours, comparing cells transduced with a non-targeting guide RNA to against those with genetic knockout of PPP2R1A after transduction with a CRISPR guide RNA targeting PPP2R1A. Percent cell density is calculated using cell titer glow analysis. PPP2R1A CRISPR knockout cells have approximately 1.7-fold increase in sensitivity to ZN-c3 (TABLE 7).
Having observed that siRNA mediated knockdown of PPP2R1A sensitized cancer cell lines to treatment with ZN-c3, it was also of interest to evaluate if CRISPR mediated PPP2R1A knockout produced a similar effect. […] Percent cell density was calculated using cell titer glow analysis.
The ovarian cancer cell line SKOV3 was treated with a CRISPR guide RNA targeting PPP2R1A or nontargeting guide RNA and transfected cells were assessed for sensitivity to ZN-c3 by measurement of reduction in percent cell density (FIG. 13). CRISPR mediated knockout of PPP2R1A was evaluated by comparison of PPP2R1A protein expression via Western blot in conditions treated with nontargeting guide RNA and PPPR12A targeting CRISPR guide RNA with beta actin as a control (FIG. 14).

For the next assay, the system named is A427 cells. As to the kind of experiment: ZN-c3 dose response, percent cell density (cell titer glow), PPP2R1A siRNA vs scrambled control. Conditions: Homo sapiens, A-427, 72 h. Here is the method:
FIG. 1 depicts the percent cell density of A427 (a first non-small cell lung cancer cell line) cells after treatment with a 10-point dose response of ZN-c3 for 72 hours, comparing cells transfected with siRNA to PPP2R1A against those transfected with a scrambled control siRNA. Percent cell density is calculated using cell titer glow analysis. PPP2R1A siRNA transfected cells have approximately 3.5-fold increase in sensitivity to ZN-c3 (TABLE 1).
The effect of PPP2R1A knockdown on influencing cancer cell susceptibility to ZN-c3 was evaluated. Various cancer cell lines were transfected with PPP2R1A siRNA or control scrambled siRNA and the cells were treated with a 10 point dose response of ZN-c3 for 72 hours. Percent cell density was calculated using cell titer glow analysis. The PPP2R1A siRNA targeted the following bases Chr.19: 52189802-52226425. SiRNA transfection was started 48 hours prior to treatment with ZN-c3. […]
A first non-small cell lung cancer cell line A427 was treated with PPP2R1A siRNA or control siRNA and transfected cells were assessed for sensitivity to ZN-c3 by measurement of reduction in percent cell density (FIG. 1). PPP2R1A siRNA mediated knockdown of PPP2R1A was evaluated by comparison of PPP2R1A expression in conditions treated with siCTRL and siPPPR12A (FIG. 2).

SMILES strings stand for the structures. “Also recorded” adds a separate entry of the source.

Turning to `C=CCn1c(=O)c2cnc(Nc3ccc(N4CCN(C)CC4)cc3)nc2n1-c1ccc2c(n1)[C@@](O)(CC)CC2` [ZN-c3, (R)-2-allyl-1-(7-ethyl-7-hydroxy-6,7-dihydro-5H-cyclopenta[b]pyridin-2-yl)-6-((4-(4-methylpiperazin-1-yl)phenyl)amino)-1,2-dihydro-3H-pyrazolo[3,4-d]pyrimidin-3-one], the “percent inhibition of cell growth” value in assay [1] (siCTRL) is “approximately 30%”. Moreover, the “percent inhibition in siPPP2R1A treated cells compared to siCTRL treated cells” value in assay [1] (siPPP2R1A) is “approximately the same”. Moreover, the EC50 in the assay on HEC1B cells (siCTRL) is 707 nM; with HEC1B cells (siPPP2R1A) it was 490 nM; in assay [2] (OV17R cells (PPP2R1A S256F), 72 hours) it was 139 nM; in assay [3] (sgNT (non-targeting guide RNA)), 386 nM; in assay [3] (sgPPP2R1A (CRISPR knockout)) it was 224 nM; in the assay with A427 cells (siCTRL), 196 nM. In addition, in the assay with A427 cells (siPPP2R1A), the EC50 came out at 55.4 nM. Also, the “sensitivity of cell line to ZN-c3 treatment” value in assay [2] (OV17R cells (PPP2R1A S256F hotspot missense mutation)) is on record as “highly susceptible; also recorded: highly sensitive”.

By EC50 is commonly meant the concentration at which the effect is half-maximal. Low readings indicate an effect from little substance, high ones a need for much substance.

Values taken from patent publication US20250208149A1, “WEE1 COMPOUND FOR TREATING UTERINE SEROUS CARCINOMA” (Recurium IP Holdings, LLC, priority 2022, published 2025).
